Measured values from ChEMBL document CHEMBL2028040, “Malaria Box”.

Columns and labels:
Plasmodium falciparum [1] = experiment: MMV: Inhibition of Plasmodium falciparum 3D7 at 5uM compound concentration.; type: functional
Plasmodium falciparum [2] = experiment: MMV: Inhibition of Plasmodium falciparum 3D7 (EC50).; type: functional, organism-based
Trypanosoma cruzi = experiment: MMV: Inhibition of Trypanosoma cruzi (Tulahuen C4 LacZ) (Chagas in vitro).; type: functional, organism-based
[3] = test system: Trypanosoma brucei brucei; experiment: MMV: Inhibition of Trypanosoma brucei brucei (Squib 427) (HAT in vitro).; type: functional, organism-based
[4] = test system: Trypanosoma brucei rhodesiense; experiment: MMV: Inhibition of Trypanosoma brucei rhodesiense (STIB 900) (HAT in vitro).; type: functional, organism-based
Leishmania infantum = experiment: MMV: Inhibition of Leishmania infantum (MHOM/MA/BE/67) in vitro.; type: functional, organism-based
[5] = MMV: Cytotoxicity against human fibroblasts (MRC-5) cells.; details: MRC-5 cells (human fibroblasts)

SMILES	inhibition at 5 µM (Plasmodium falciparum [1])	EC50 (Plasmodium falciparum [2])	IC50 (Trypanosoma cruzi)	IC50 [3]	IC50 [4]	IC50 (Leishmania infantum)	IC50 [5]
COc1ccc(/C=C2/SC(=Nc3ccccc3)NC2=O)cc1	71%	551 nM	> 32 µM	> 32 µM	16.3 µM	> 32 µM	11.5 µM
CCN1CCN(Cc2ccc(NC(=O)c3cc4ccc5cccnc5c4[nH]3)cc2)CC1	70%	361 nM	8 µM	3.78 µM	0.928 µM	6.35 µM	8.47 µM
O=C(NC1CCN(Cc2ccccc2)CC1)c1cc(-c2ccncc2)nc2ccc(Cl)cc12	92%	1020 nM	4.59 µM	4.03 µM	3.51 µM	16.2 µM	> 32 µM
COc1ccc2nc(C)cc(Nc3cccc(O)c3)c2c1	98%	969 nM	15 µM	4.41 µM	5.08 µM	16 µM	> 32 µM
Cc1[nH]c(-c2ccc(F)cc2)cc1C(=O)NC1CCN(Cc2ccccc2)CC1	99%	771 nM	> 32 µM	6.26 µM	4.03 µM	> 32 µM	> 32 µM
CCOc1cc(Br)c(C(C)NC(=O)c2cccc(OC)c2)cc1OCC (stereo not drawn)	96%	1430 nM	> 32 µM	> 32 µM	> 32 µM	> 32 µM	> 32 µM
O=C(NCCCN1CCC(N2CCCCC2)CC1)C1=Cc2cc(Br)ccc2OC1	99%	563 nM	4.22 µM	0.805 µM	0.859 µM	4.03 µM	12 µM
Fc1ccc2[nH]c3c(NCCCN4CCOCC4)ncnc3c2c1	98%	345 nM	> 32 µM	> 32 µM	18.3 µM	> 32 µM	> 32 µM
Cc1ccc(Cl)cc1N1CCN(CCCNC(=O)C2CCN(c3nc4ccccc4[nH]3)CC2)CC1	97%	1330 nM	3.74 µM	1.31 µM	1.01 µM	4 µM	14.5 µM
COc1ccc(C(=O)Nc2nonc2-c2ccc(OC)c(OC)c2)cc1Cl	92%	516 nM	> 32 µM	> 32 µM	> 32 µM	> 32 µM	> 32 µM
O=C(Nc1ccc(CN2CCOCC2)cc1)c1ccc(-c2cc(Cl)ccc2Cl)o1	97%	1940 nM	12.1 µM	14.9 µM	4.44 µM	25.4 µM	17.4 µM
CCOc1ccc(C2N(C)c3ccccc3N2C)cc1	72%	941 nM	3.1 µM	> 32 µM	> 32 µM	25.4 µM	15.5 µM
O=C(Nc1ccc(-c2nc3ccccc3[nH]2)cc1)c1ccc(Cl)c(Cl)c1	97%	838 nM	> 32 µM	> 32 µM	> 32 µM	> 32 µM	> 32 µM
CCOc1cc(Cl)c(C(C)NC(=O)c2ccccc2)cc1OCC (stereo not drawn)	96%	1370 nM	> 32 µM	> 32 µM	> 32 µM	> 32 µM	> 32 µM
COc1ccc(C2NCCc3c2[nH]c2ccccc32)cc1CN1CCN(c2ccc(F)cc2)CC1 (stereo not drawn)	97%	934 nM	2.75 µM	2.78 µM	0.246 µM	1.19 µM	3.94 µM
O=C(NC1CCN(Cc2ccccc2)CC1)c1cc(-c2cccnc2)nc2ccc(Cl)cc12	91%	1010 nM	> 32 µM	14 µM	3.83 µM	> 32 µM	> 32 µM
Nc1ccc(-c2nc3cc(Oc4ccc(Oc5ccc6[nH]c(-c7ccc(N)cc7)nc6c5)cc4)ccc3[nH]2)cc1	97%	842 nM	3.91 µM	1.94 µM	2.74 µM	4.06 µM	8 µM
CCOc1ccc(-n2cc(-c3ccccc3)c3c(SCc4cc(C)ccc4C)ncnc32)cc1	97%	1700 nM	> 32 µM	> 32 µM	25 µM	> 32 µM	> 32 µM
Cc1cc(NC(=O)c2ccc(-c3ccccc3)cc2)no1	95%	693 nM	> 32 µM	> 32 µM	> 32 µM	> 32 µM	> 32 µM
COc1cccc(-c2nn(C)c3sc(C(=O)NCCN4CCN(c5ccccc5F)CC4)cc23)c1	91%	1300 nM	> 32 µM	16 µM	5.31 µM	> 32 µM	> 32 µM
COc1cc(-c2nc(-c3ccccc3)c(-c3ccccc3)[nH]2)cc(OC)c1O	97%	1180 nM	28.3 µM	11.9 µM	9.75 µM	25.4 µM	> 32 µM
O=C(Nc1ccc(N2CCN(Cc3ccccc3)CC2)cc1)c1cccs1	59%	1080 nM	> 32 µM	14.6 µM	9.69 µM	> 32 µM	> 32 µM
O=C(Nc1ccc(-c2nc3cc4ccccc4cc3[nH]2)cc1)c1cccc(Br)c1	93%	450 nM	> 32 µM	> 32 µM	> 32 µM	> 32 µM	> 32 µM
Cc1cc(C)c2nc(N3CCC(C(=O)NCCCN4CCC(N5CCCCC5)CC4)CC3)sc2c1	98%	697 nM	0.85 µM	0.22 µM	< 0.125 µM	4.06 µM	4.25 µM
COc1cc(CNCCc2ccc(Cl)cc2)cc(OC)c1O	97%	1790 nM	> 32 µM	15 µM	12.1 µM	> 32 µM	> 32 µM
COc1cc(OC)cc(N2C(=O)N(Cc3ccc(C(C)(C)C)cc3)c3ccccc3S2(=O)=O)c1	97%	1430 nM	8.64 µM	18.4 µM	4.06 µM	16.2 µM	> 32 µM
CCCc1c(CC)c(=N)c2ccccc2n1C	69%	242 nM	0.415 µM	21 µM	16.2 µM	> 32 µM	30.6 µM
CCOC(=O)c1cnc2c(C)cc(C)cc2c1Nc1ccc(OC)c(OC)c1	96%	232 nM	> 32 µM	> 32 µM	> 32 µM	> 32 µM	> 32 µM
CCCn1c(=N)c(C(=O)NC2CCCCC2)cc2c(=O)n3cccc(C)c3nc21	96%	1110 nM	> 32 µM	16.1 µM	8.44 µM	> 32 µM	> 32 µM
